These results are taken from patent publication US9901646B2, “Methods for induction of antigen-specific immune tolerance” (École Polytechnique Fédérale de Lausanne (EPFL), priority 2010, dated 2018).

Where no end group is shown, it is not given here. 8‑arm PEG = 8-arm polyethylene glycol (PEG) dendrimer, conjugated via pyridyldisulfide groups to cysteine thiols

One data set concerns circulating erythrocytes. Kind of data set: 8-arm PEG constructs binding to circulating erythrocytes after intravenous injection, flow cytometry. Particulars: flow cytometry. The data set is classed as in vivo, mouse. The source says: FIG. 17 presents experimental results depicting erythrocyte cell-surface half-life of 8-arm PEG-ERY1 (filled circles) and 8-arm PEG-MIS (empty boxes), determined by flow cytometry.

In another data set the test system is human erythrocytes. The experiment in a line: Erythrocyte binding of APC-peptide conjugates by flow cytometry. The conditions noted are these: 1 μM APC-peptide conjugate, 37 C, 45 min. As to the method:
Peptides were ordered and custom-synthesized via standard fmoc solid-phase peptide synthesis from PolyPeptide Group (Strasbourg, France). 10 equivalents of peptide dissolved in 3 M guanidine-HCl were added to 2 mg/mL maleimide-activated APC (InnovaBiosciences, Cambridge, UK) in PBS. Following a 4 h incubation at 4° C., the reaction was desalted on a 2 mL ZEBA Desalting Column (Thermo Scientific) and stored at 4° C.
Freshly isolated human blood was dissolved 100-fold into PBS supplemented with 20 mg/mL BSA. 5×10^5 erythrocytes were added to 150 μL of 1 μM APC-peptide conjugate and incubated at 37 C for 45 min. Cells were washed extensively in PBS+20 mg/mL BSA, and analyzed for APC fluorescence on a CyAn ADP Flow cytometer (Beckman Coulter).

Data set [1] relates to human erythrocytes (type A and B). Kind of data set: Binding of bacteria displaying peptide to cells, flow cytometry. The conditions noted are these: peptide displayed on bacteria, 1 h at 4° C. As to the method:
Method: To characterize specificity, individual sequenced clones were analyzed using cytometry for binding toward human erythrocytes (type A and B), mouse erythrocytes, HEK293T cells and HUVECs. For binding assays, 10^6 mammalian cells were scanned on an AccuriA6 after co-incubation with 5×10^7 bacteria for 1 h at 4° C. followed by three washes in HFS (5% HSA, 2% FBS in PBS). The percentage of cells with green bacteria bound was calculated using FLOWJO Software.

For a further data set, the target named is T1, glycophorin-A (GYPA) (Mus musculus, UniProt P14220).
T1 construct: GYPA is naturally expressed and presented as part of a complex comprised of several membrane and cytoskeletal proteins; endogenous in cells; host or cells: whole mouse erythrocytes
Kind of data set: Affinity pull-down with biotinylated ERY1 peptide and photoactivatable crosslinker, Western blot. The data set is classed as binding. Particulars: whole erythrocytes, UV crosslinking, streptavidin and anti-GYPA Western blot. The procedure: Method: The ERY1 (H2N-WMVLPWLPGTLDGGSGCRG-CONH2) (SEQ ID NO:19) and mismatch (H2N-PLLTVGMDLWPWGGSGCRG-CONH2) (SEQ ID NO:20) peptides were synthesized using standard solid-phase f-moc chemistry on TGR resin. The peptide was cleaved from the resin in 95% tri-fluoroacetic acid, 2.5% ethanedithiol, 2.5% water, and precipitated in ice-cold diethyl ether. Purification was conducted on a Waters preparative HPLC-MS using a C18 reverse phase column.
In brief, peptides were solubilized in PBS/DMF and reacted with 1.05 equivalents of Mts-atf-biotin overnight at 4° C. Following clarification of the reaction by centrifugation, biotinylated peptide was incubated with erythrocytes at in PBSA-50 for 1 h at 37° C., cells were washed twice in fresh PBS, and were UV irradiated at 365 nm for 8 min at room temperature. Cells were lysed by sonication and the lysate was purified using streptavidin-coated magnetic beads (Invitrogen). The eluate was run on an SDS-PAGE and transferred to a PVDF membrane, and immunoblotted with streptavidin-HRP (R&D Systems) or anti-mouse GYPA.

For data set [2] the following is noted: mouse, in vivo, iv, 150 ug.
Method: The Swiss Vaud Veterinary Office previously approved all animal procedures. While under anesthesia with ketamine/xylasine, the mouse tail was warmed in 42° C. water and 150 μg of protein was injected in a 100 μL volume directly into the tail vein. Care was taken to ensure mice were kept at 37° C. while under anesthesia. Blood was drawn by a small scalpel incision on the base of the tail, and diluted 10-fold in PBSA-5, 10 mM EDTA, and stored at −20° C. until further analysis. Blood samples were analyzed for MBP concentration by sandwich ELISA. In brief, monoclonal mouse anti-MBP was used as the capture antibody, polyclonal rabbit anti-MBP as the primary antibody, and goat anti-rabbit-HRP as the secondary antibody. The data were analyzed in PRISM4 using standard pharmacokinetic compartmental analysis, using Eq. 1 and Eq. 2 A=A0e^−Kt Equation 1: Standard one-compartment model
where A is the amount of free drug in the body at time t and A0 is the initial amount of drug at time zero. A=ae^−at+be^−βt Equation 2: Standard two-compartment model
where A is the amount of free drug in the central compartment at time t.
Data set [3] relates to mouse erythrocytes (glycophorin-A on the erythrocyte surface). Kind of data set: Binding of OVA conjugates to erythrocytes in vitro, flow cytometry, equilibrium binding. From the text:
To obtain strong and specific biophysical binding of an antigen to erythrocytes, we used a synthetic 12 amino acid peptide (ERY1) that we discovered by phage display to specifically bind to mouse glycophorin-A (Kontos and Hubbell, 2010). In this investigation, the model antigen OVA was used with a transgenic mouse strain (OT-I) whose CD8^+ T cell population expresses the T cell receptor specific for the MHC I immunodominant OVA peptide SIINFEKL (SEQ ID NO:3). The ERY1 peptide was chemically conjugated to OVA to create an OVA variant (ERY1-OVA) that binds mouse erythrocytes with high affinity and specificity (FIG. 8a). High-resolution confocal microscopy confirmed earlier observations concerning ERY1 binding (Kontos and Hubbell, 2010), namely localization to the cell membrane equatorial periphery, with no intracellular translocation of the ERY1-conjugated protein.

In another data set the test system is erythrocytes (CD45−). The experiment in a line: In vivo binding to circulating erythrocytes after intravenous administration. The arrangement: species or system mouse. As to the method: 150 μg of ERY1-OVA or OVA in 0.9% saline (B. Braun) in a volume of 100 μL was injected intravenously into the tail of 8-12 week old female C57BL/6 mice while under anesthesia with isoflurane. […] At predetermined time points, 5 μL of blood was taken from a small incision on the tail, diluted 100-fold into 10 mM EDTA in PBS, washed three times with PBS with 10 mg/mL BSA, and analyzed for OVA content by flow cytometry and ELISA. OVA was quantified by sandwich ELISA, using a mouse monoclonal anti-OVA antibody (Sigma) for capture, a polyclonal rabbit anti-OVA antibody (AbD SEROTEC) for detection, a goat anti-rabbit-IgG-HRP antibody (BioRad) for final detection, followed by TMB substrate (GE Life Sciences). Hematological characterization was performed on an ADVIVA 2120 Hematology System (Siemens). Erythrocyte-bound ERY1-GST was detected by incubating labeled cells with goat anti-GST (GE Healthcare Life Sciences), followed by incubation with AlexaFluor488 donkey anti-goat (Invitrogen), and analyzed by flow cytometry. For biodistribution studies, 20 μg of ERY1-APC or MIS-APC was injected intravenously into the tail vein of 8-12 week old female C57BL/6 mice as described above. Mice were sacrificed at predetermined time points, and the spleen, blood, and liver were removed. […]

Turning to “8-arm PEG-MIS: 8-arm PEG conjugate harboring the non-specific MIS peptide (H-PLLTVGMDLWPWGGSGC(8‑arm PEG)RG-NH2; also: 8-arm PEG conjugate (multivalent), linkage to PEG not given here) [reference compound]”, the “binding to circulating erythrocytes upon intravenous injection” value in the data set on circulating erythrocytes is “not”.

As to “GQSGHWHCQGPFANWVGSSGGS (Erythrocyte Binding Peptide) [ERY123]”, in the data set with human erythrocytes, the “binding to human erythrocytes as conjugates of APC” value (“binding … of APC” below) is given as “bound to human erythrocytes”. For the same molecule, the “binding to human erythrocytes, specificity as compared to 293T cells and HUVECs” value (“binding … compared to 293T cells and HUVECs” below) in data set [1] is listed as “bound specifically to human erythrocytes”.

Regarding “GQSGQYICTSAGFGEYCFIDGSSGGS (Erythrocyte Binding Peptide) [ERY59]”, the “binding … compared to 293T cells and HUVECs” value in data set [1] is “bound specifically to human erythrocytes”.

For “PLLTVGMDLWPW (Control peptide) [mismatch peptide, same amino acid residues as ERY1, scrambled, reference compound]”, the “molecular target on the erythrocyte membrane / conjugation to erythrocyte proteins” value in the data set with glycophorin-A (GYPA) is reported as “failed to conjugate to any erythrocyte proteins”.

With “WMVLPWLPGTLD (not fully specified (C-terminus)) [ERY1, synthesized as H2N-…-CONH2]”, the “molecular target on the erythrocyte membrane / conjugation to erythrocyte proteins” value with glycophorin-A (GYPA) is recorded as “glycophorin-A (GYPA)”.

Turning to “GQSGQSVWYSSRGNPLRCTGGSSGGS (Erythrocyte Binding Peptide) [ERY162]”, the “binding … compared to 293T cells and HUVECs” value in data set [1] was “bound specifically to human erythrocytes”.

For “GQSGQTYFCTPTLLGQYCSVGSSGGS (Erythrocyte Binding Peptide) [ERY64]”, in the data set on human erythrocytes, the “binding … of APC” value was “bound to human erythrocytes”. Also, the “binding … compared to 293T cells and HUVECs” value in data set [1] is on record as “bound specifically to human erythrocytes”.

Take maltose binding protein [wild-type MBP]: in data set [2], the half-life was 55.2 min, the α half life was determined as 24.6 min and the β half life turned out to be 66.6 min.

As to “GQSGQPNSRWIYMTPLSPGIYRGSSGGS (Erythrocyte Binding Peptide) [ERY19]”, in data set [1], the “binding … compared to 293T cells and HUVECs” value is “bound specifically to human erythrocytes”.

In the case of “GQSGQFCTVIYNTYTCVPSSGSSGGS (Erythrocyte Binding Peptide) [ERY141]”, in the data set with human erythrocytes, the “binding … of APC” value was “bound to human erythrocytes”. The “binding … compared to 293T cells and HUVECs” value in data set [1] is “bound specifically to human erythrocytes”.

B1: OVA conjugated with only the crosslinking molecule: OVA carrying only the SMCC crosslinker (conjugate)
chain: GSIGAASMEFCFDVFKELKVHHANENIFYCPIAIMSALAMVYLGAKDSTRTQINKVVRFDKLPGFGDSIEAQCGTSVNVHSSLRDILNQITKPNDVYSFSLASRLYAEERYPILPEYLQCVKELYRGGLEPINFQTAADQARELINSWVESQTNGIIRNVLQPSSVDSQTAMVLVNAIVFKGLWEKAFKDEDTQAMPFRVTEQESKPVQMMYQIGLFRVASMASEKMKILELPFASGTMSMLVLLPDEVSGLEQLESIINFEKLTEWTSSNVMEERKIKVYLPRMKMEEKYNLTSVLMAMGITDVFSSSANLSGISSAESLKISQAVHAAHAEINEAGREVVGSAEAGVDAASVSEEFRADHPFLFCIKHIATNAVLFFGRCVSP
As for B1, the “binding to erythrocytes (flow cytometry)” value in data set [3] is “did not display any measureable affinity”.

B2: ovalbumin (protein)
chain: B1 chain
notes: model antigen
For B2, the “binding to circulating eryptotic (annexin-V+) and healthy (annexin-V−) erythrocytes” value in the data set with erythrocytes (CD45−) was “nonbinding”.
